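1) Cells in 96-well plates. 2) Compound, 48 h, 5 concentrations. 3) Linear interpolation between surrounding doses. 4) Unreached endpoint = highest concentration. TGI denotes the concentration required for complete inhibition of growth.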
How the values were obtained:
Assay in all cases: inhibition of tumour cell growth, NCI panel, 48 h
A549 NSCLC = system: A549 NSCLC
CAKI-1 renal = system: CAKI-1 renal
COLO 205 colon = system: COLO 205 colon
EKVX NSCLC = system: EKVX NSCLC
HS 578T breast = system: HS 578T breast
HT29 colon = system: HT29 colon
KM12 colon = system: KM12 colon
LOX IMVI melanoma = system: LOX IMVI melanoma
M14 melanoma = system: M14 melanoma
NCI/ADR-RES ovarian = system: NCI/ADR-RES ovarian
SF-268 CNS = system: SF-268 CNS
SF-539 CNS = system: SF-539 CNS
SK-MEL-2 melanoma = system: SK-MEL-2 melanoma
SK-MEL-28 melanoma = system: SK-MEL-28 melanoma
SR leukemia = system: SR leukemia
TK-10 renal = system: TK-10 renal

Row | SMILES | TGI (A549 NSCLC) [µM] | TGI (CAKI-1 renal) [µM] | TGI (COLO 205 colon) [µM] | TGI (EKVX NSCLC) [µM] | TGI (HS 578T breast) [µM] | TGI (HT29 colon) [µM] | TGI (KM12 colon) [µM] | TGI (LOX IMVI melanoma) [µM] | TGI (M14 melanoma) [µM] | TGI (NCI/ADR-RES ovarian) [µM] | TGI (SF-268 CNS) [µM] | TGI (SF-539 CNS) [µM] | TGI (SK-MEL-2 melanoma) [µM] | TGI (SK-MEL-28 melanoma) [µM] | TGI (SR leukemia) [µM] | TGI (TK-10 renal) [µM]
1 | CC1(C)CC(=O)c2c(nc3ccc4ccccc4c3c2-c2ccc(NC(=O)CCCC(=O)Nc3ccc(-c4c5c(nc6ccc7ccccc7c46)CC(C)(C)CC5=O)cc3)cc2)C1 | > 100 | > 100 | > 100 | > 100 | > 100 | > 100 | > 100 | > 100 | > 100 | > 100 | > 100 | > 100 | > 100 | > 100 | > 100 | > 100
2 | COc1nc(N)c(NC2OC(CO)C(O)C2O)c(=O)[nH]1 (stereo unspecified) | > 100 | > 100 | > 100 | > 100 | > 100 | > 100 | > 100 | > 100 | > 100 | > 100 | > 100 | > 100 | > 100 | > 100 | > 100 | > 100
3 | CN(/N=C(\C(=O)O)c1ccccc1)C1=NCCCN1 | > 100 | > 100 | > 100 | > 100 | > 100 | > 100 | > 100 | > 100 | – | > 100 | > 100 | > 100 | > 100 | > 100 | > 100 | > 100
4 | N#Cc1c(N)oc(-c2cccc([N+](=O)[O-])c2)c1C#N | > 100 | 43.6 | 44.7 | > 100 | > 100 | 37.6 | – | 85.6 | > 100 | > 100 | > 100 | 57.2 | > 100 | 39.5 | > 100 | 49.7
5 | CCC(NC(C)c1ccccc1)C(O)c1ccc(OCc2ccccc2)c(OCc2ccccc2)c1 (stereo unspecified) | 29.8 | 24.4 | 3.88 | 31.2 | 46.9 | 13 | 18 | 26.3 | 16.3 | 30.6 | 36.4 | 32.8 | 29.1 | 36 | 5.58 | 32.4
6 | Cc1c(/C=N/NC(=S)Nc2ccccc2Cl)c(=O)n(-c2ccccc2)n1C | > 100 | 81.3 | > 100 | > 100 | 85.3 | > 100 | > 100 | > 100 | > 100 | 76.1 | > 100 | > 100 | > 100 | > 100 | > 100 | 91.7
7 | O=C(c1ccccc1)c1ccc(COc2ccc(C(c3c(O)c4ccccc4oc3=O)c3c(O)c4ccccc4oc3=O)cc2)cc1 | 65.2 | 45 | 39.2 | 40 | > 100 | 34.9 | 29.6 | 56.5 | – | 40.9 | > 100 | 46.4 | 34.9 | 47.4 | 63.9 | 32.8
8 | Cc1cc(=O)[nH]c(NN2C(Cl)C(=O)C2c2ccc(Cl)cc2)n1 (stereo unspecified) | > 64.8 | 30.7 | 36.2 | 35 | 93.5 | 54.9 | 16.1 | 15.1 | 28.9 | 54.9 | > 66.2 | 33.3 | 46.4 | 49.6 | 6.22 | 48.6
9 | COC(=O)c1c2n(c3ccccc13)C[C@H]1OC(C)(C)O[C@@H]21 | > 100 | > 100 | > 100 | > 100 | > 100 | > 100 | > 100 | > 100 | > 100 | > 100 | > 100 | > 100 | > 100 | > 100 | > 100 | > 100
10 | O=c1cc(-c2cccc(Cl)c2)[nH]c2ncccc12 | > 100 | 40.4 | – | > 100 | 13 | > 100 | > 100 | > 100 | > 100 | > 100 | > 88.8 | 0.374 | > 86.5 | > 100 | > 100 | > 100
11 | CCCN(C(=O)c1c(Cl)nnc(Cl)c1C(=O)c1cc(Cl)nnc1Cl)c1cc(Cl)nnc1Cl | > 100 | 22.3 | 18.6 | 27.3 | 14.9 | 43.4 | 26.4 | 18.5 | 40.8 | 69.1 | 20.2 | 40 | 33.3 | 28.1 | 20.3 | 32.2
12 | CCOC(=O)c1c(N2CCCC2)nsc1Nc1ccccc1 | > 100 | > 100 | > 100 | > 100 | > 100 | > 100 | > 100 | > 100 | > 100 | > 100 | > 100 | > 100 | > 100 | > 100 | > 100 | > 100
13 | COC(=O)C1C(OC(=O)c2ccccc2)CC2CCC1N2C(N)=O (stereo unspecified) | > 100 | > 100 | > 100 | > 100 | > 100 | > 100 | > 100 | > 100 | > 100 | > 100 | > 100 | > 100 | > 100 | > 100 | > 100 | –
14 | CC1=C(N2CC2)C(=O)c2nc3n(c2C1=O)CCC3OC(=O)CCl (stereo unspecified) | 0.169 | 0.174 | 0.444 | 0.551 | 0.0784 | 0.337 | 0.0977 | 0.117 | 0.0814 | 0.0862 | 0.202 | 0.152 | 0.271 | 0.141 | 13.6 | 0.639
15 | [N-]=[N+]=Nc1c(-c2ccccc2)c(Cl)nc2ccccc12 | > 100 | > 100 | 44.7 | > 100 | > 100 | 52.5 | 45.2 | 43.6 | > 100 | > 100 | > 100 | > 100 | > 100 | > 100 | > 100 | > 100
16 | CC12Nc3ccccc3N1C(=O)c1ccccc12 (stereo unspecified) | > 100 | > 100 | > 100 | > 100 | > 100 | > 100 | > 100 | > 100 | > 100 | > 100 | > 100 | > 100 | > 100 | > 100 | > 100 | > 100
17 | COc1ccc(-c2c(N)n(-c3nc4ccccc4s3)c(=O)c3cc([N+](=O)[O-])ccc23)cc1 | 23.3 | 48.5 | – | 44.6 | 37.3 | > 100 | > 100 | 48.3 | 47.6 | 78.1 | 56.6 | 19.6 | > 100 | > 100 | > 100 | > 100
18 | CCOC(=O)/C(C(=S)Nc1ccccc1)=C(/N)N1CCCC1 | > 100 | > 100 | > 100 | > 100 | > 100 | > 100 | > 100 | > 100 | > 100 | > 100 | > 100 | > 100 | > 100 | > 100 | > 100 | > 100
19 | O=C(CN1CCNCCN(CC(=O)N2CCCCC2)CCNCC1)N1CCCCC1 | > 100 | > 100 | > 100 | > 100 | > 100 | > 100 | > 100 | > 100 | > 100 | > 100 | – | > 100 | > 100 | > 100 | > 100 | > 100
20 | Cc1cc(C)c(C2=NOC(c3ccccc3)(c3cc(=O)n(-c4ccccc4)s3)O2)c(C)c1 (stereo unspecified) | > 100 | 33.7 | 63.4 | 50.2 | > 100 | 41.2 | > 100 | 30.7 | 76.8 | 68.1 | > 100 | – | 89.5 | 94.4 | > 100 | 77.1
21 | COc1ccc(N2C(=O)C3c4[nH]c5ccc(C)cc5c4C4CCC(C)CC4C3C2=O)cc1 (stereo unspecified) | > 100 | > 100 | > 100 | > 100 | 37.2 | > 100 | – | > 100 | > 100 | > 100 | > 100 | > 100 | > 100 | – | > 100 | > 100
22 | Cc1n[nH]c(=O)c2cc(-c3ccccc3)[nH]c12 | > 100 | > 100 | 71 | > 100 | > 100 | > 100 | > 100 | > 100 | > 100 | > 100 | > 100 | > 100 | 91.1 | – | > 100 | > 100
